Experimental data as given in publication PMC6528491 (Frontiers in Pharmacology, 2019).
≈ marks a conversion by molar mass, not a printed value. Where two headings read alike, the source gives them in different places.

What was measured:
[1] = parameters: method as in 2 sources, ref Wu et al., 2005 ||| ref Li et al., 2014; settings: cited from earlier work
Caco2 cell system = settings: Caco-2; cited from earlier work
CYP3A4 = settings: cited from earlier work
[2] = Clinical drug-drug interaction study, non-compartmental pharmacokinetics of CsA in blood; format: in vivo, healthy Chinese volunteers; settings: single 500 mg BG dose with 200 mg CsA; healthy volunteers; NCA
Procedure: The study was a single center, open-labeled, two-period, fixed-sequence clinical trial. […] Water intake was allowed 2 h after administration of the drug. All participants were given a standardized meal 4 h after dosing. […] Blood samples were withdrawn using vacuum tubes containing EDTA-K2 and immediately transferred to labeled tubes. The samples were stored at −80°C for subsequent analysis. […] Processing of the whole blood samples involved a two-step protein precipitation. Fifty microliters of zinc sulfate (10 mM) were added to 50 μl of a sample. […] After centrifugation, an aliquot (2 μl) of the supernatant was then injected onto an ultra high-performance liquid chromatography coupled with tandem mass spectrometry (UHPLC–MS/MS) device for analysis. UHPLC–MS/MS was performed using an ExionLC™ analytical UHPLC system (AB Sciex, MA, USA), coupled with a Qtrap 4,500 mass spectrometer (AB Sciex, Framingham, MA, USA), equipped with the Turbo lonSpray interface. […] The protonated analyte ions were detected in positive ionization and multiple reaction monitoring modes. […] Calibration curves were linear over the concentration range of 10–3,000 ng/ml. […] Exploratory statistical comparisons of pharmacokinetic parameters between male and female subjects were performed by the t-test for independent data. […]

[3] = Population pharmacokinetic analysis of CsA (NONMEM, two-compartment model with transit compartments); format: in vivo, healthy Chinese volunteers; settings: 95% CIs from 1,000 bootstrap samples included 1.0 and were inside 0.8–1.25
[4] = cited from earlier work
Source text: After oral administration, BG is rapidly hydrolyzed to baicalein ...

[5] = intravenous high BG doses (0.23–0.90g/kg) to rats; ref Xin et al., 2013; cited from earlier work
[6] = rats, cited from earlier work
P-gp = settings: rats; after multiple oral doses of BG; ref Tian et al., 2019; cited from earlier work
[7] = parameters: method as in 2 sources, one per row (each row's own in cited_ref): ref Albengres and Tillement, 1992; Keogh et al., 1995 ||| ref Atiq et al., 2016; settings: ref Albengres and Tillement, 1992; Keogh et al., 1995; cited from earlier work
[8] = multiple oral administrations of BG 80 mg/kg, ref Tian et al., 2019
[9] = single dose of BG 136.6 mg/kg, ref Lai et al., 2004

Structure (SMILES): O=c1cc(-c2ccccc2)oc2cc(O)c(O)c(O)c12 [B, baicalein]
- Exposure to BG relative to exposure to B ([1]; B single doses to healthy volunteers, ref Li et al., 2014): more than 10 fold
- AUC of BG ([1]; after oral administration of 100 mg B, healthy volunteers, ref Li et al., 2014): 580 ng·h/mL
- Tmax for both BG and B ([1]; oral B, ref Li et al., 2014): about 1 h
- Papp (Caco2 cell system): 9e-06 cm/s
- Ki (CYP3A4): 2.3 µM

Structure (SMILES): O=C(O)[C@H]1O[C@@H](Oc2cc3oc(-c4ccccc4)cc(=O)c3c(O)c2O)[C@H](O)[C@@H](O)[C@@H]1O [BG, baicalein 7-O-glucuronide]
- Effect of BG co-administration on the exposure of CsA [2]: no clinically relevant effect
- Effect of factor BG co-treatment on popPK parameters of CsA (except Ka and Q) [3]: did not affect the respective pharmacokinetic parameters of CsA to a clinically relevant extent
- Bound to proteins ([4]; human plasma, ref Tang et al., 2006): 86–92%
- Solubility ([4]; in water, ref Wu et al., 2011): 57 µg/mL (≈ 128 µM)
- Elimination half-life ([4]; ref Noh et al., 2016): 6.36 ± 5.85 h
- Oral bioavailability ([4]; ref Wu et al., 2014): 2.2%
- Decrease of the clearance of midazolam [5]: up to 43%
- Effect on the exposure of CsA ([6]; multiple intravenous doses of BG, ref Tian et al., 2019): did not affect the exposure of CsA
- Decrease of AUC0-∞ of CsA [6, 8]: 25%
- Decrease of Cmax of CsA [6, 8]: 38%
- Effect on Cmax and AUC0-∞ of CsA ([6]; oral administration of BG, ref Tian et al., 2019): significantly decreased
- Effect on exposure to CsA ([6]; ref Lai et al., 2004): increased exposure to oral CsA
- Elevation of AUC of CsA compared with CsA alone [6, 9]: ~6 times
- Elevation of Cmax of CsA compared with CsA alone [6, 9]: about 4 times
- Effect on the pharmacokinetics of CsA ([6]; single intravenous dose and multiple doses of BG, ref Tian et al., 2019): had no effect
- Expression of P-gp in the intestine (P-gp): increased
- Expression of P-gp in the liver (P-gp): not changed
- AUC of BG ([1]; after oral administration of 750 mg BG, healthy subjects, ref Wu et al., 2005): 613 ng·h/mL
- Tmax ([1]; oral BG, ref Wu et al., 2005): 7.4 h
- Papp (Caco2 cell system): 0.275 ± 1.14 × 10^−6 cm/s

Structure (SMILES): CC(=O)N1CCN(c2ccc(OCC3COC(Cn4ccnc4)(c4ccc(Cl)cc4Cl)O3)cc2)CC1 (centres unmarked) [ketoconazole]
- Elevation of CsA concentrations by concomitant administration [7]: several-fold
